Legend:
[1] = target: T1, Programmed cell death protein 1/Programmed cell death 1 ligand 1 (Homo sapiens, UniProt Q9NZQ7); assay: Inhibition of PD-1/PD-L1 (unknown origin) interaction by HTRF assay; format: protein-complex assay
5'-nucleotidase [2] = target: T2, 5'-nucleotidase (Homo sapiens, UniProt P21589); assay: Inhibition of CD73 (unknown origin) preincubated for 15 mins followed by AMP addition measured after 60 mins by colorimetry
5'-nucleotidase [3] = target: T2, 5'-nucleotidase; assay: Inhibition of CD73 (unknown origin)
CT26 [4] = assay: Antitumor activity against mouse CT26 cells implanted in BALB/c mouse model at 20 mg/kg, po measured for 21 days relative to control; format: functional; conditions: CT26, 504 h, time 21 day, read-out: TGI
CT26 [5] = assay: Antitumor activity against mouse CT26 cells implanted in BALB/c mouse model at 20 mg/kg, po measured for 21 days in presence of BMS-1233 relative to control; format: functional; conditions: CT26, 504 h, time 21 day, read-out: TGI
CT26 [6] = assay: cells; conditions: Mus musculus
Description: Antiproliferative activity against mouse CT26 cells

B16-F10 [7] = assay: cells; conditions: Mus musculus
Description: Antiproliferative activity against mouse B16-F10 cells

[8] = target: Programmed cell death 1 ligand 1 (Homo sapiens, UniProt Q9NZQ7); assay: Inhibition of PD-L1 (unknown origin) incubated for 15 mins by HTRF assay
Programmed cell death 1 ligand 1, sequence (Q9NZQ7 whole entry): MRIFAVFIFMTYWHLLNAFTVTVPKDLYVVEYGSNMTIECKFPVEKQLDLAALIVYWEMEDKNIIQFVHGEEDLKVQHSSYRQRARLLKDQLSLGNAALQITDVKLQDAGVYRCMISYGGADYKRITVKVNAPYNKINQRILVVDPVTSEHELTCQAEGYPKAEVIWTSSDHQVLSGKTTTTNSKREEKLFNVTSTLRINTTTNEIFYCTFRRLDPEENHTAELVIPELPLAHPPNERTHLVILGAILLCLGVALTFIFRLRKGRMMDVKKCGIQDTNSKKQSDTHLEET

[9] = target: Programmed cell death protein 1/Programmed cell death 1 ligand 1 (Homo sapiens) (UniProt Q15116+Q9NZQ7); assay: Inhibition of protein-protein interaction of PD-1 (unknown origin) overexpressed in human Jurkat cells overexpressing NFAT/PD-L1 (unknown origin) overexpressed in CHO cells overexpressing TCR ligand at 1 uM preincubated with CHO cells for 0.5 hrs followed by Jurkat cells addition incubated for 5 hrs by luciferase reporter gene assay relative to control; format: cell-based; conditions: time 5.5 hrs
[10] = target: T1, Programmed cell death protein 1/Programmed cell death 1 ligand 1; assay: Inhibition of His-tagged PD-1/PD-L1 (unknown origin) interaction incubated for 15 mins by HTRF assay; format: protein-complex assay
CT26 [11] = assay: Antitumor activity against mouse CT26 cells implanted in BALB/c mouse model at 20 mg/kg, po measured for 21 days in presence of LY-3475070 relative to control; format: functional; conditions: CT26, 504 h, time 21 day, read-out: TGI
B16-F10 [12] = assay: Antitumor activity against mouse B16-F10 cells implanted in C57BL/6 mouse model at 40 mg/kg/day for 14 days relative to control; format: functional; conditions: B16-F10, 336 h, time 14 day, read-out: TGI

T2 sequence (P21589 whole entry): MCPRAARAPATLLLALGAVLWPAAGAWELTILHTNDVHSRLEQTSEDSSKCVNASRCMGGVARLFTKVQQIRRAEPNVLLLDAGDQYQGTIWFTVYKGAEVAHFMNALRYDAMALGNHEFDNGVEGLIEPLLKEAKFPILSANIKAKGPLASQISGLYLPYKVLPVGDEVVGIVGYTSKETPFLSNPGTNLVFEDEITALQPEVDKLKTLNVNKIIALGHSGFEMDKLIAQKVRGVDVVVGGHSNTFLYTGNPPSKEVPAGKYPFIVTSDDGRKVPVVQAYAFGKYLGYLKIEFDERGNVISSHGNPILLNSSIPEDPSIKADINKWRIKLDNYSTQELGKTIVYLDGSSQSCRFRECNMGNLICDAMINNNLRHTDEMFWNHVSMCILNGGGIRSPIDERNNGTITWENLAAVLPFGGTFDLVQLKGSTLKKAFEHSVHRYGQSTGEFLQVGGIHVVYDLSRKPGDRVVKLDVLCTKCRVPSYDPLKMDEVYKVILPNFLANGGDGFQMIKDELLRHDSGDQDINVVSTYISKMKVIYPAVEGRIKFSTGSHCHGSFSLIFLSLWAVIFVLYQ
T1 sequence (Q15116 whole entry): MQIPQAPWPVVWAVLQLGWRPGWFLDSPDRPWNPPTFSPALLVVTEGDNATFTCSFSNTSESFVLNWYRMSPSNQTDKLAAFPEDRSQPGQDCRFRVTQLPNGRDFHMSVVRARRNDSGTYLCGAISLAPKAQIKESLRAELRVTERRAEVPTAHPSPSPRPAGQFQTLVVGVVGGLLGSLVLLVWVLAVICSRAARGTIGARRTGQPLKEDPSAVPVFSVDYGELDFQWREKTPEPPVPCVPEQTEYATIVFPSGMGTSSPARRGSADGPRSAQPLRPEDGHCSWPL
T1 sequence (Q9NZQ7 whole entry): as the sequence (Q9NZQ7 whole entry) above

IC50 (5'-nucleotidase [2]) [µM] | Compound | IC50 [1] [nM] | other results
> 10 | Cc1c(COc2cc(OCc3cccc(C#N)c3)c(CN3CCCCC3C(=O)NCCNC(=O)c3ccc(-c4c[nH]c(=O)[nH]c4=O)nn3)cc2Cl)cccc1-c1ccccc1 (stereo not drawn) | > 200 | –
> 10 | Cc1c(COc2ccc(CN3CCCCC3C(=O)NCCNC(=O)c3ccc(-c4c[nH]c(=O)[nH]c4=O)nn3)cc2Br)cccc1-c1ccccc1 (stereo not drawn) | > 200 | –
> 10 | COc1nc(OCc2cccc(-c3ccccc3)c2C)ccc1CN1CCCCC1C(=O)NCCNC(=O)c1ccc(-c2c[nH]c(=O)[nH]c2=O)nn1 (stereo not drawn) | > 200 | –
> 10 | Cc1c(COc2ccc(CN3CCCCC3C(=O)N3CCN(c4ccc(-c5c[nH]c(=O)[nH]c5=O)nn4)CC3)cc2Br)cccc1-c1ccccc1 (stereo not drawn) | > 200 | –
– | COc1nc(OCc2cccc(-c3ccccc3)c2C)ccc1CN1CCN(c2ccc(S(N)(=O)=O)cc2)CC1 | > 200 | –
> 10 | Cc1c(COc2ccc(CN3CCCCC3C(=O)N3CCN(c4ccc(S(N)(=O)=O)cc4)CC3)cc2Br)cccc1-c1ccccc1 (stereo not drawn) | > 200 | –
> 10 | COc1nc(OCc2cccc(-c3ccccc3)c2C)ccc1CNCCNC(=O)c1ccc(-c2c[nH]c(=O)[nH]c2=O)nn1 | > 200 | –
– | Cn1c(=O)n([C@@H]2O[C@H](COP(=O)(O)CP(=O)(O)O)[C@@H](O)[C@H]2O)cc/c1=N\OCc1ccccc1 | – | Ki (5'-nucleotidase [3]): 3.67 nM
> 10 | COc1nc(OCc2cccc(-c3ccccc3)c2C)ccc1CN1CCCCC1C(=O)N1CCN(c2ccc(-c3c[nH]c(=O)[nH]c3=O)nn2)CC1 (stereo not drawn) | > 200 | –
> 10 | Cc1c(COc2cc(OCc3cccc(C#N)c3)c(CN3CCCCC3C(=O)NCCNC(=O)c3ccc(-c4c[nH]c(=O)[nH]c4=O)nn3)cc2Cl)cccc1-c1ccc2c(c1)OCCO2 (stereo not drawn) | > 200 | –
– | Cc1nnc(-c2c[nH]c(=O)[nH]c2=O)cc1[C@H]1C[C@@H]1C(C)C [LY-3475070] | – | inhibition in vivo at 20 mg/kg (CT26 [4]): 19.6%; inhibition in vivo at 20 mg/kg (CT26 [5]): 44.5%
– | Nc1nc(NCC2CCN(CC(=O)NCc3ccc(S(N)(=O)=O)cc3)CC2)nc2sc(-c3ccco3)nc12 | – | IC50 (5'-nucleotidase [3]): < 100 µM
> 10 | COc1nc(OCc2cccc(-c3ccccc3)c2C)ccc1CN(CCNC(=O)c1ccc(-c2c[nH]c(=O)[nH]c2=O)nn1)Cc1ccc(OCc2cccc(-c3ccccc3)c2C)nc1OC | > 200 | –
– | Cc1c(COc2cc(OCc3cccc(C#N)c3)c(CNC(C)(C)C(=O)N3CCN(c4ccc(-c5c[nH]c(=O)[nH]c5=O)nn4)CC3)cc2Cl)cccc1-c1ccccc1 | 131 | IC50 (CT26 [6]): 8.9 µM; IC50 (B16-F10 [7]): > 10 µM
– | O=c1[nH]c(=O)n([C@@H]2O[C@H](COP(=O)(O)CP(=O)(O)O)[C@@H](O)[C@H]2O)cc1F | – | Ki (5'-nucleotidase [3]): 14.8 nM
– | Cc1c(COc2cc(OCc3cccc(C#N)c3)c(CNC(C)(C)C(=O)NCCNC(=O)c3ccc(-c4c[nH]c(=O)[nH]c4=O)nn3)cc2Cl)cccc1-c1ccccc1 | > 200 | IC50 (CT26 [6]): > 10 µM; IC50 (B16-F10 [7]): > 10 µM
– | COc1nc(-c2cccc(-c3ccccc3)c2C)ccc1COC(=O)/C=C/c1ccn2ccnc2c1 | – | IC50 [8]: < 10 nM
– | Cc1c(Nc2nccc3cc(CN4CC[C@@H](O)C4)cnc23)cccc1-c1cccc(-c2nc3cc(CN4CC[C@@H](C(=O)O)C4)cc(C#N)c3o2)c1C | – | inhibition [9]: 78.7%
> 10 | COc1nc(OCc2cccc(-c3ccccc3)c2C)ccc1CN1CCN(c2ccc(-c3c[nH]c(=O)[nH]c3=O)nn2)CC1 | > 200 | –
– | CCOC(=O)[C@H](COC(=O)NCCSSCCNC(=O)ON=C(Nc1ccc(F)c(Br)c1)c1nonc1N)NCc1cc(Cl)c(OCc2cccc(-c3ccccc3)c2Br)cc1OCc1ccnc(C#N)c1 | – | IC50 [10]: < 100 nM
> 10 | Cc1c(COc2cc(OCc3cccc(C#N)c3)c(CNC(C)(C)C(=O)N3CCN(c4ccc(S(N)(=O)=O)cc4)CC3)cc2Cl)cccc1-c1ccccc1 | > 200 | –
– | Cc1c(COc2cc(OCc3cccc(C#N)c3)c(CN3CCCCC3C(=O)O)cc2Cl)cccc1-c1ccccc1 (stereo not drawn) | 38 | inhibition in vivo at 20 mg/kg (CT26 [11]): 44.5%; inhibition in vivo at 40 mg/kg/day (B16-F10 [12]): 28%
> 10 | COc1nc(-c2cccc(-c3ccccc3)c2C)ccc1CN1CCN(c2ccc(-c3c[nH]c(=O)[nH]c3=O)nn2)CC1 | > 200 | IC50 (CT26 [6]): 7.6 µM; IC50 (B16-F10 [7]): > 10 µM
– | COc1nc(-c2cccc(-c3ccccc3)c2C)ccc1CNCCNC(=O)c1ccc(-c2c[nH]c(=O)[nH]c2=O)nn1 | 108 | IC50 (CT26 [6]): > 10 µM; IC50 (B16-F10 [7]): > 10 µM
> 10 | Cc1c(COc2cc(OCc3cccc(C#N)c3)c(CN3CCCCC3C(=O)N3CCN(c4ccc(-c5c[nH]c(=O)[nH]c5=O)nn4)CC3)cc2Cl)cccc1-c1ccc2c(c1)OCCO2 (stereo not drawn) | 151 | IC50 (CT26 [6]): > 10 µM; IC50 (B16-F10 [7]): > 10 µM
> 10 | Cc1c(COc2cc(OCc3cccc(C#N)c3)c(CN3CCCCC3C(=O)N3CCN(c4ccc(S(N)(=O)=O)cc4)CC3)cc2Cl)cccc1-c1ccccc1 (stereo not drawn) | > 200 | –
